Patent US20230116039A1, “DISINFECTION SOLUTION WITH TWO-PART FORMULATION” (ASP GLOBAL MANUFACTURING GMBH, priority 2020, published 2023)

How the values were obtained:
[1] = Stability of ready-to-use PAA solution, pH adjusted with ethanolamine, with or without chelant, heated at 56° C. for one hour; type: physicochemical; conditions: initial PAA 0.35%, water hardness 200 ppm, pH 5 with ethanolamine
Excerpt: (§1) In these studies, peracetic acid (PAA) was combined with hard water having a water hardness of 200 parts per million (“ppm”) such that the resulting solution included a 0.35% concentration of PAA. The pH of the solution was adjusted to 5 using a pH modifier. In a first batch of the solution, the pH modifier used was ethanolamine. In a second batch of the solution, the pH modifier used was disodium phosphate. Test specimens from these two batches were created by individually adding chelants thereto. The chelants used in these studies are those used for removing ions (e.g. Calcium and Magnesium) from hard water, and included tetrasodium EDTA, TRILON® M (methylglycinediacetic acid trisodium salt (MGDA-Na3)), TRILON® C (diethylenetriaminepentaacetic acid pentasodium salt (DTPA-Na5)), sodium citrate, and DISSOLVINE® GL (glutamic acid diacetic acid tetrasodium salt (GLDA-Na4)). Test specimens from these two batches were also created that lacked any such chelants. In some instances, test specimens were created for different concentrations of certain of these chelants. Table 1 reflects test specimens made from the first batch of the solution. Table 2 reflects test specimens made from the second batch of the solution. The tables also reflect the concentration of each chelant in each specimen as a percentage. Each specimen was heated at 56° C. for one hour. At the end of the hour, the PAA concentration was determined. The final concentration of PAA is provided in Table 1 and Table 2 alongside the change in the PAA concentration as determined at the end of the hour (“Δ PAA %”).

[2] = Stability of ready-to-use PAA solution, pH adjusted with disodium phosphate, with or without chelant, heated at 56° C. for one hour; type: physicochemical; conditions: initial PAA 0.35%, water hardness 200 ppm, pH 5 with disodium phosphate
Excerpt: as §1

Final PAA Concentration (%) ([2]; chelant concentration 0.2%)	Δ PAA % ([2]; chelant concentration 0.2%)	Structure (SMILES)	Final PAA Concentration (%) ([1]; chelant concentration 0.2%)	Δ PAA % ([1]; chelant concentration 0.2%)	Final PAA Concentration (%) ([1]; chelant concentration 0.6%)	Δ PAA % ([1]; chelant concentration 0.6%)	Final PAA Concentration (%) ([2]; chelant concentration 0.6%)	Δ PAA % ([2]; chelant concentration 0.6%)	Final PAA Concentration (%) ([1]; chelant concentration 0.1%)	Δ PAA % ([1]; chelant concentration 0.1%)	Final PAA Concentration (%) ([1]; chelant concentration 0.4%)	Δ PAA % ([1]; chelant concentration 0.4%)	Final PAA Concentration (%) ([2]; chelant concentration 0.1%)	Δ PAA % ([2]; chelant concentration 0.1%)	Final PAA Concentration (%) ([2]; chelant concentration 0.4%)	Δ PAA % ([2]; chelant concentration 0.4%)
–	–	O=C([O-])CN(CCN(CC(=O)[O-])CC(=O)[O-])CC(=O)[O-].[Na+].[Na+].[Na+].[Na+] [Na4EDTA, tetrasodium EDTA, reference compound]	–	–	–	–	–	–	0.21%	−40%	0.14%	−60%	0.28%	−20%	0.18%	−49%
0.26%	−26%	O=C([O-])CN(CCN(CC(=O)[O-])CC(=O)[O-])CCN(CC(=O)[O-])CC(=O)[O-].[Na+].[Na+].[Na+].[Na+].[Na+] [Trilon C (liquid), diethylenetriaminepentaacetic acid pentasodium salt]	0.22%	−37%	–	–	–	–	–	–	–	–	–	–	–	–
0.3%	−14%	CC(C(=O)[O-])N(CC(=O)[O-])CC(=O)[O-].[Na+].[Na+].[Na+] (stereo not drawn) [Trilon M (liquid), methylglycinediacetic acid trisodium salt]	–	–	0.19%	−46%	0.26%	−26%	–	–	–	–	–	–	–	–
–	–	O=C([O-])CC(O)(CC(=O)[O-])C(=O)[O-].[Na+].[Na+].[Na+] [sodium citrate, reference compound]	–	–	–	–	–	–	–	–	0.23%	−34%	–	–	0.26%	−26%

Structure (SMILES)	Final PAA Concentration (%) ([2]; chelant concentration 0.2%)	Δ PAA % ([2]; chelant concentration 0.2%)	Final PAA Concentration (%) ([1]; chelant concentration 0.2%)	Δ PAA % ([1]; chelant concentration 0.2%)	Final PAA Concentration (%) ([1]; chelant concentration 0.6%)	Δ PAA % ([1]; chelant concentration 0.6%)	Final PAA Concentration (%) ([2]; chelant concentration 0.6%)	Δ PAA % ([2]; chelant concentration 0.6%)	Final PAA Concentration (%) ([1]; chelant concentration 0.1%)	Δ PAA % ([1]; chelant concentration 0.1%)	Final PAA Concentration (%) ([1]; chelant concentration 0.4%)	Δ PAA % ([1]; chelant concentration 0.4%)	Final PAA Concentration (%) ([2]; chelant concentration 0.1%)	Δ PAA % ([2]; chelant concentration 0.1%)	Final PAA Concentration (%) ([2]; chelant concentration 0.4%)	Δ PAA % ([2]; chelant concentration 0.4%)
O=C([O-])CC[C@@H](C(=O)[O-])N(CC(=O)[O-])CC(=O)[O-].[Na+].[Na+].[Na+].[Na+] [Dissolvine (liquid), glutamic acid diacetic acid tetrasodium salt]	0.29%	−17%	0.23%	−34%	0.17%	−51%	0.25%	−29%	–	–	–	–	–	–	–	–
